The text below walks through data of ChEMBL document CHEMBL1201862, “PubChem BioAssay data set” (2004).

Assay in all cases: NCI tumour cell line growth inhibition, 48 h
The subject of assay [1] is HOP-92.
For assay [2], the system named is MOLT-4.
Assay [3] relates to SR.
Assay [4] relates to K562.
Assay [5] relates to SW-620.
Assay [6] relates to LOX IMVI.
Assay [7] relates to TK-10.
For assay [8], the system named is RPMI-8226.
The test system of assay [9] is HT-29.
Assay [10] relates to MDA-N.
The subject of assay [11] is UO-31.
The subject of assay [12] is OVCAR-8.
Assay [13] deals with SK-MEL-2.
For assay [14], the system named is ACHN.
Assay [15] relates to SK-OV-3.
Assay [16] has as its system 786-0.
Assay [17] relates to Hs-578T.
Assay [18] relates to PC-3.
The subject of assay [19] is A498.
The test system of assay [20] is NCI-H460.

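Values below derive from 48-hour exposures of cells grown in 96-well plates, with endpoints linearly interpolated between the two concentrations bracketing the appropriate inhibition level. The concentration for 50% growth inhibition is given as GI50.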 Active and inactive are the calls of the source. Cut-off read from the data, not from the text of the source: active = GI50 up to about 1.1 µM and inactive = higher.

Consider `CC1=C2NCN(C)N=C2C(C#N)(C#N)C1(C#N)C#N`, for which the GI50 in assay [1] is 15.4 µM (inactive); in [2], 2.56 µM (inactive); in assay [3], 6.49 µM (inactive); in assay [4] it was 3.78 µM (inactive); in [5] it was 10.2 µM (inactive); in assay [6], 20.8 µM (inactive). For the same molecule, the GI50 in assay [7] was 16.4 µM (inactive); in [8], 10.9 µM (inactive); in assay [9], 21.4 µM (inactive); in assay [10] it was 15.6 µM (inactive); in assay [11], 18.4 µM (inactive); in assay [12], 27 µM (inactive). Besides, the GI50 in assay [13] was > 61.7 µM (inactive); in assay [14], 17.9 µM (inactive); in assay [15], > 100 µM (inactive); in [16] it was 19.5 µM (inactive); in [17] it was 32.6 µM (inactive); in assay [18], 26.9 µM (inactive). Besides, the GI50 in assay [19] is 41.3 µM (inactive).

For the molecule `C=C[C@H]1CN2CCc3c([nH]c4c([C@H]5CCCN5C)c(O)ccc34)[C@@H]2C[C@@H]1C[C@H]1c2[nH]c3ccccc3c2CCN1C` [STRYCHNOPENTAMINE], the GI50 in assay [1] is 1.58 µM (inactive); in assay [3], 0.425 µM (active); in assay [4] it was 0.422 µM (active); in assay [5], 1.24 µM (inactive); in assay [20] it was 1.48 µM (inactive); in [6], 1.15 µM (inactive). Also, the GI50 in [7] is 1.83 µM (inactive); in assay [8], 0.653 µM (active); in assay [9], 1.3 µM (inactive); in [10], 1.35 µM (inactive); in [11], 1.71 µM (inactive); in assay [12] it was 1.23 µM (inactive). The GI50 in [13] is 1.9 µM (inactive); in assay [14], 1.78 µM (inactive); in [15], 1.77 µM (inactive); in assay [16], 1.43 µM (inactive); in assay [17], 1.78 µM (inactive); in [18] it was 1.57 µM (inactive). In assay [19], the GI50 is 1.63 µM (inactive).

`O=c1[nH][nH]c(=O)c2c1ccc1oc3ccccc3c12`: the GI50 in assay [1], in assay [2], in assay [3], in [4], in assay [5] and in assay [20] was > 100 µM (inactive) each time. Further, the GI50 in assay [7], in assay [8], in assay [9], in [10], in assay [11] and in assay [12] was > 100 µM (inactive) each time. Also, the GI50 in assay [13], in [14], in [15], in assay [16], in assay [17] and in [18] was > 100 µM (inactive) in each case. Also, in assay [19], the GI50 was > 100 µM (inactive).

As for `O=c1[nH]c(=O)n(C2OC(CO)C(O)C2O)cc1Oc1ccccc1` (configuration not stated), the GI50 in [1], in assay [2], in [3], in assay [4], in assay [5] and in [20] was > 100 µM (inactive) throughout. The GI50 in [6], in assay [7], in assay [9], in [10], in assay [12] and in assay [13] was > 100 µM (inactive) each time. In addition, the GI50 is > 100 µM (inactive) in assay [14]; > 100 µM (inactive) in assay [15]; > 100 µM (inactive) in assay [16]; 98.9 µM (inactive) in assay [17]; > 100 µM (inactive) in [18]; > 100 µM (inactive) in assay [19].

Consider `Brc1c(C#CCC(c2ccccc2)(c2ccccc2)c2ccccc2)ccc(C#CCC(c2ccccc2)(c2ccccc2)c2ccccc2)c1Br`, for which the GI50 in [1], in assay [2], in [3], in assay [4], in assay [5] and in assay [20] was > 100 µM (inactive) each time. Moreover, the GI50 in assay [7], in [8], in [9], in assay [10], in assay [11] and in assay [12] was > 100 µM (inactive) in each case. The GI50 in assay [13], in [14], in [15], in assay [16], in [17] and in assay [18] was > 100 µM (inactive) each time. The GI50 in assay [19] was > 100 µM (inactive).

As for `CCOC(=O)C(C)c1nc2cc(F)c(N3CCOCC3)cc2[nH]c1=O` (configuration not stated), the GI50 is > 100 µM (inactive) in assay [1]; 85.9 µM (inactive) in assay [2]; > 100 µM (inactive) in assay [3]; > 100 µM (inactive) in [4]; > 100 µM (inactive) in assay [5]; 39.1 µM (inactive) in assay [20]. Besides, the GI50 in assay [7] is > 100 µM (inactive); in assay [8], 83.6 µM (inactive); in assay [9], > 100 µM (inactive); in [10], > 100 µM (inactive); in assay [11] it was > 100 µM (inactive); in assay [12], > 100 µM (inactive). Also, the GI50 in [13] is > 100 µM (inactive); in [14] it was > 100 µM (inactive); in assay [15], > 100 µM (inactive); in assay [16], > 100 µM (inactive); in [17] it was > 100 µM (inactive); in [18], 71.9 µM (inactive). In addition, the GI50 in assay [19] is > 100 µM (inactive).

As for `COC1(OC)N=C(N)C2(C#N)C(c3ccccc3)NC3=C(CCC3)C12C#N` (configuration not stated), the GI50 in [1], in assay [2], in assay [3], in assay [5], in assay [20] and in [6] was > 100 µM (inactive) throughout. For the same molecule, the GI50 in [7], in assay [8], in assay [9], in assay [10], in assay [11] and in [12] was > 100 µM (inactive) each time. Besides, the GI50 in [13], in assay [14], in assay [15], in assay [16], in [17] and in [18] was > 100 µM (inactive) throughout. In assay [19], the GI50 was > 100 µM (inactive).
